Assay results: PubChem BioAssay AID334 (DTP/NCI, 2004)
Several values for one entry are separate records, joined by “and”; a condition that tells them apart may be missing. Equal entries are not always repeated. Inconclusive results and toxic doses are left out.

Tested on: CD2F1 mice, intracerebral P388 leukemia, median survival T/C%
Assay: NCI In Vivo Anticancer Drug Screen. Data for tumor model P388 Leukemia (intracerebral) in CD2F1 (CDF1) mice
Details: endpoint: median survival time, higher = longer survival
Procedure: The antitumor activity of compounds was measured in mice bearing transplantable tumors. Survival or tumor size were measured and the results are expressed as the measurement made in the treated group (T) divided by the measurement made in the vehicle treated control group (C). The tumor model used in this assay is P388 Leukemia (intracerebral) in CD2F1 (CDF1) mice

CCCCCCCCCCCCCCCCCC(=O)NC(Cc1ccc(N(CCCl)CCCl)cc1)C(=O)O (stereo not given)
T/C (dose: 1.88 mg/kg/injection, schedule: Q03HX008 (ip), vehicle: saline): 110 % of control
T/C (dose: 3.75 mg/kg/injection, schedule: Q03HX008 (ip), vehicle: saline): 115 % of control

COc1cc(C[C@H]2c3cc(OC)c(OC)cc3CCN2C)c(Oc2cc3c(cc2OC)-c2c(OC)c(OC)cc4c2[C@H](C3)N(C)CC4)cc1OC
T/C (dose: 50.0 mg/kg/injection, schedule: Q01DX005 (ip), vehicle: Klucel (hydroxypropylcellulose) (HPC)): 102 % of control and 106 % of control and 107 % of control
T/C (dose: 200.0 mg/kg/injection, schedule: Q01DX005 (ip), vehicle: Klucel (hydroxypropylcellulose) (HPC)): 96 % of control and 101 % of control and 104 % of control

CCCCCC(=O)NC(Cc1ccc(N(CCCl)CCCl)cc1)C(=O)O (stereo not given)
T/C (dose: 1.3 mg/kg/injection, schedule: Q03HX008 (ip), vehicle: saline): 94 % of control
T/C (dose: 2.6 mg/kg/injection, schedule: Q03HX008 (ip), vehicle: saline): 105 % of control
T/C (dose: 5.3 mg/kg/injection, schedule: Q03HX008 (ip), vehicle: saline): 105 % of control
T/C (dose: 10.6 mg/kg/injection, schedule: Q03HX008 (ip), vehicle: saline): 100 % of control
T/C (dose: 21.2 mg/kg/injection, schedule: Q03HX008 (ip), vehicle: saline): 115 % of control

O=C1N(Cl)C(=O)C(c2ccc(Cl)cc2)(c2ccc(Cl)cc2)N1Cl
T/C (dose: 50.0 mg/kg/injection, schedule: Q01DX009 (ip), vehicle: saline with Tween-80): 94 % of control
T/C (dose: 100.0 mg/kg/injection, schedule: Q01DX009 (ip), vehicle: saline with Tween-80): 105 % of control
T/C (dose: 200.0 mg/kg/injection, schedule: Q01DX009 (ip), vehicle: saline with Tween-80): 94 % of control

CN(Cc1cnc2nc(N)nc(N)c2n1)c1ccc(C(=O)N[C@@H](CCC(=O)O)C(=O)O)cc1
T/C (dose: 0.38 mg/kg/injection, schedule: Q01DX009 (ip), vehicle: olive oil, sesame oil, peanut oil): 110 % of control
T/C (dose: 0.38 mg/kg/injection, schedule: Q01DX009 (ip), vehicle: saline): 110 % of control
T/C (dose: 0.75 mg/kg/injection, schedule: Q01DX009 (ip), vehicle: sodium bicarbonate): 112 % of control
T/C (dose: 0.75 mg/kg/injection, schedule: Q01DX009 (ip), vehicle: suspension in saline): 123 % of control and 106 % of control
T/C (dose: 1.2 mg/kg/injection, schedule: Q04DX003 (ip), vehicle: saline): 105 % of control
T/C (dose: 1.5 mg/kg/injection, schedule: Q01DX009 (ip), vehicle: sodium bicarbonate): 112 % of control
T/C (dose: 1.5 mg/kg/injection, schedule: Q01DX009 (ip), vehicle: suspension in saline): 96 % of control and 100 % of control
T/C (dose: 2.3 mg/kg/injection, schedule: Q01DX009 (ip), vehicle: sodium bicarbonate): 112 % of control
T/C (dose: 2.3 mg/kg/injection, schedule: Q01DX009 (ip), vehicle: suspension in saline): 113 % of control and 103 % of control
T/C (dose: 2.3 mg/kg/injection, schedule: Q04DX003 (ip), vehicle: saline): 100 % of control
T/C (dose: 3.4 mg/kg/injection, schedule: Q01DX009 (ip), vehicle: sodium bicarbonate): 116 % of control
T/C (dose: 3.4 mg/kg/injection, schedule: Q01DX009 (ip), vehicle: suspension in saline): 120 % of control and 122 % of control
T/C (dose: 4.6 mg/kg/injection, schedule: Q04DX003 (ip), vehicle: saline): 110 % of control
T/C (dose: 9.2 mg/kg/injection, schedule: Q04DX003 (ip), vehicle: saline): 100 % of control
T/C (dose: 18.4 mg/kg/injection, schedule: Q04DX003 (ip), vehicle: saline): 115 % of control
T/C (dose: 36.8 mg/kg/injection, schedule: Q04DX003 (ip), vehicle: saline): 95 % of control

COc1ccc2c(c1)CCC(c1ccccc1)=C2c1ccc(OCCN2CCCC2)cc1
T/C (dose: 12.0 mg/kg/injection, schedule: Q01DX005 (ip), vehicle: Klucel (hydroxypropylcellulose) (HPC)): 104 % of control and 110 % of control
T/C (dose: 24.0 mg/kg/injection, schedule: Q01DX005 (ip), vehicle: Klucel (hydroxypropylcellulose) (HPC)): 97 % of control and 102 % of control
T/C (dose: 48.0 mg/kg/injection, schedule: Q01DX005 (ip), vehicle: Klucel (hydroxypropylcellulose) (HPC)): 104 % of control and 108 % of control
T/C (dose: 96.0 mg/kg/injection, schedule: Q01DX005 (ip), vehicle: Klucel (hydroxypropylcellulose) (HPC)): 96 % of control

F
T/C (dose: 16.0 mg/kg/injection, schedule: Q01DX005 (ip), vehicle: saline): 97 % of control and 101 % of control
T/C (dose: 32.0 mg/kg/injection, schedule: Q01DX005 (ip), vehicle: saline): 98 % of control and 99 % of control

O=C1C(=O)c2ccccc2C(O)=C1CC=C(Cl)Cl
T/C (dose: 10.0 mg/kg/injection, schedule: Q01DX005 (ip), vehicle: Klucel (hydroxypropylcellulose) (HPC)): 102 % of control and 109 % of control
T/C (dose: 20.0 mg/kg/injection, schedule: Q01DX005 (ip), vehicle: Klucel (hydroxypropylcellulose) (HPC)): 96 % of control and 98 % of control
T/C (dose: 40.0 mg/kg/injection, schedule: Q01DX005 (ip), vehicle: Klucel (hydroxypropylcellulose) (HPC)): 104 % of control and 105 % of control
T/C (dose: 80.0 mg/kg/injection, schedule: Q01DX005 (ip), vehicle: Klucel (hydroxypropylcellulose) (HPC)): 100 % of control

NC(=S)N/N=C/c1ccc(O)cn1
T/C (dose: 12.0 mg/kg/injection, schedule: Q01DX005 (ip), vehicle: saline): 99 % of control and 100 % of control
T/C (dose: 24.0 mg/kg/injection, schedule: Q01DX005 (ip), vehicle: saline): 96 % of control and 97 % of control
T/C (dose: 48.0 mg/kg/injection, schedule: Q01DX005 (ip), vehicle: saline): 101 % of control and 106 % of control
T/C (dose: 96.0 mg/kg/injection, schedule: Q01DX005 (ip), vehicle: saline): 93 % of control and 103 % of control

CC1(C)N=C(N)N=C(N)N1c1ccc(OCCCNC(=O)Nc2cccc(S(=O)(=O)F)c2)c(Cl)c1
T/C (dose: 25.0 mg/kg/injection, schedule: Q01DX009 (ip), vehicle: saline): 105 % of control
T/C (dose: 50.0 mg/kg/injection, schedule: Q01DX009 (ip), vehicle: saline): 111 % of control
T/C (dose: 100.0 mg/kg/injection, schedule: Q01DX009 (ip), vehicle: saline): 100 % of control

O=NN(CCCl)C(=O)NCCCl
T/C (dose: 8.0 mg/kg/injection, schedule: Q01DX005 (iv), vehicle: saline + alcohol): 160 % of control
T/C (dose: 30.0 mg/kg/injection, schedule: Q01DX001 (ip), vehicle: saline + alcohol): 202 % of control
T/C (dose: 40.0 mg/kg/injection, schedule: Q01DX001 (ip), vehicle: saline + alcohol): 202 % of control

CCCCCCCCCCCCCCCCCC(=O)NC(CC(=O)OCCCCCC)c1ccc(N(CCCl)CCCl)cc1 (stereo not given)
T/C (dose: 2.15 mg/kg/injection, schedule: Q03HX008 (ip), vehicle: saline): 105 % of control
T/C (dose: 4.3 mg/kg/injection, schedule: Q03HX008 (ip), vehicle: saline): 105 % of control
T/C (dose: 8.6 mg/kg/injection, schedule: Q03HX008 (ip), vehicle: saline): 105 % of control
T/C (dose: 69.0 mg/kg/injection, schedule: Q03HX008 (ip), vehicle: saline): 152 % of control
T/C (dose: 275.0 mg/kg/injection, schedule: Q03HX008 (ip), vehicle: saline): 121 % of control

COc1cc(NCc2ccc3nc(N)nc(N)c3c2C)cc(OC)c1OC (tested in a mixture with another compound)
T/C (dose: 7.5 mg/kg/injection, schedule: Q01DX009 (ip), vehicle: water): 100 % of control
T/C (dose: 15.0 mg/kg/injection, schedule: Q01DX009 (ip), vehicle: water): 115 % of control
T/C (dose: 30.0 mg/kg/injection, schedule: Q01DX009 (ip), vehicle: water): 117 % of control

CNc1nc(N(C)C)nc(N(C)C)n1
T/C (dose: 8.0 mg/kg/injection, schedule: Q01DX009 (ip), vehicle: saline): 99 % of control
T/C (dose: 12.5 mg/kg/injection, schedule: Q01DX009 (ip), vehicle: saline): 101 % of control and 111 % of control
T/C (dose: 16.0 mg/kg/injection, schedule: Q01DX009 (ip), vehicle: saline): 103 % of control
T/C (dose: 32.0 mg/kg/injection, schedule: Q01DX009 (ip), vehicle: saline): 106 % of control
T/C (dose: 64.0 mg/kg/injection, schedule: Q01DX009 (ip), vehicle: saline): 118 % of control

Nc1nncs1
T/C (dose: 64.0 mg/kg/injection, schedule: Q01DX005 (ip), vehicle: saline with Tween-80): 119 % of control
T/C (dose: 128.0 mg/kg/injection, schedule: Q01DX005 (ip), vehicle: saline with Tween-80): 160 % of control and 169 % of control
T/C (dose: 256.0 mg/kg/injection, schedule: Q01DX005 (ip), vehicle: saline with Tween-80): 180 % of control

CC(=O)O[C@]1(C(C)=O)CC[C@H]2[C@@H]3C[C@H](C)C4=CC(=O)CC[C@]4(C)[C@H]3CC[C@@]21C
T/C (dose: 8.0 mg/kg/injection, schedule: Q01DX009 (ip), vehicle: Klucel (hydroxypropylcellulose) (HPC)): 92 % of control and 104 % of control
T/C (dose: 16.0 mg/kg/injection, schedule: Q01DX009 (ip), vehicle: Klucel (hydroxypropylcellulose) (HPC)): 100 % of control and 102 % of control
T/C (dose: 32.0 mg/kg/injection, schedule: Q01DX009 (ip), vehicle: Klucel (hydroxypropylcellulose) (HPC)): 93 % of control and 103 % of control
T/C (dose: 64.0 mg/kg/injection, schedule: Q01DX009 (ip), vehicle: Klucel (hydroxypropylcellulose) (HPC)): 90 % of control and 99 % of control
T/C (dose: 128.0 mg/kg/injection, schedule: Q01DX009 (ip), vehicle: Klucel (hydroxypropylcellulose) (HPC)): 90 % of control and 101 % of control
T/C (dose: 256.0 mg/kg/injection, schedule: Q01DX009 (ip), vehicle: Klucel (hydroxypropylcellulose) (HPC)): 96 % of control and 103 % of control
